{"source": "patent US9821002B2", "about": "“Method for alleviating radiation injury with isorhamnetin-3-O-β-D-glucoside” (Sinotai Oncology Associate., Ltd., priority 2015, dated 2017)", "key": {"NMuMG cells": {"system": "NMuMG cells", "experiment": "Apoptosis assay (FITC Annexin V/PI) after ultraviolet irradiation", "assay_type": "cell-based, mouse", "details": "2 h pretreatment, ultraviolet 30 mJ/cm^2, 24 hours, mean ± SEM", "experimental": "(§1) Four groups of NMuMG cells (i.e., a normal control group referred to as Normal Control Group 1-A, an ultraviolet control group referred to as UV Control Group 1-A, and two experimental groups referred to as Experimental Groups 1-A to 2-A) and four groups of HaCaT cells (i.e., a normal control group referred to as Normal Control Group 1-B, an ultraviolet control group referred to as UV Control Group 1-B, and two experimental groups referred to as Experimental Groups 1-B to 2-B), were prepared based on the procedure set forth in “Source and cultivation of cell lines” of “Experimental materials”. The cells in each group were cultivated using 5 mL of a corresponding medium shown in Table 1 and a 6-cm Petri dish in an incubator (37° C., 5% CO2) for 24 hours. […]\n(§2) Subsequently, the stained cells were analyzed using BD Accuri™ C6 flow cytometry, in which cells that could be stained with FITC Annexin V but not with PI (i.e., FITC Annexin V positive and PI negative) represented cells that were induced with early apoptosis; cells stained with both FITC Annexin V and PI (i.e., FITC Annexin V positive and PI positive) represented cells that were induced with late apoptosis; and cells that could not be stained with FITC Annexin V and PI (i.e., FITC Annexin V negative and PI negative) represented viable cells. […]"}, "HaCaT cells": {"system": "HaCaT cells", "experiment": "Apoptosis assay (FITC Annexin V/PI) after ultraviolet irradiation", "assay_type": "cell-based, human", "details": "2 h pretreatment, ultraviolet 50 mJ/cm^2, 48 hours, mean ± SEM", "experimental": "as §1, §2"}}, "data": [{"smiles": "COc1cc(-c2oc3cc(O)cc(O)c3c(=O)c2O[C@@H]2O[C@H](CO)[C@@H](O)[C@H](O)[C@H]2O)ccc1O", "note": "[isorhamnetin-3-O-β-D-glucoside]", "values": [{"measurement": "Apoptosis percentage", "setting": "NMuMG cells; 15 μM", "result": "10.6 ± 2.8", "unit": "%"}, {"measurement": "Apoptosis percentage", "setting": "NMuMG cells; 30 μM", "result": "10.5 ± 2.5", "unit": "%"}, {"measurement": "Apoptosis percentage", "setting": "HaCaT cells; 50 μM", "result": "26.13 ± 7.26", "unit": "%"}, {"measurement": "Apoptosis percentage", "setting": "HaCaT cells; 100 μM", "result": "23 ± 2.19", "unit": "%"}]}]}
